Laboratory results: patent publication US11753408B2, “Compounds and method for blocking transmission of malarial parasite” (The United States of America, as represented by the …, priority 2016, dated 2023)

Assays:
[1] = tested on: Stage III-V gametocytes (blood stage P. falciparum parasites); test: In vitro drug activity on gametocytes (AlamarBlue viability assay); type: cell-based, Plasmodium falciparum; conditions: read-out: Gametocyte EC50
How it was run: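 Viability was measured by AlamarBlue fluorescence (Ex 525/Em 598 nm) after 24 h dye incubation following 72 h compound exposure at 37° C, 5% CO2. Gametocytes, stage III–V from strains 3D7, HB3 and Dd2, were NAG/Percoll-enriched and plated at 20,000 cells/well.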

[2] = tested on: Asexual parasites of P. falciparum strain 3D7; test: In vitro drug activity on asexual parasites (SYBR Green assay); type: cell-based, Plasmodium falciparum
How it was run: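 SYBR Green I fluorescence (ex 490, em 520 nm) was read after freeze-thaw lysis and 30 min staining at room temperature. Before that, drug-treated cultures (0.5% parasitemia, 2% hematocrit, DMSO ≤0.5%) were incubated 72 h, in duplicate.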

mTOR = mTOR (Homo sapiens, UniProt P42345); test: mTOR activity (no method described); type: biochemical
[3] = Microsomal stability (rat); type: in vitro ADME; conditions: rat microsomes
Solubility at pH 7.4 = type: physicochemical
PAMPA permeability = type: in vitro ADME

| Structure (SMILES) | EC50 [1] | EC50 [2] | mTOR (mTOR) | Microsomal Stability (rat) T1/2 [3] | Sol @ pH 7.4 (Solubility at pH 7.4) | PAMPA Permeability (PAMPA permeability) |
| --- | --- | --- | --- | --- | --- | --- |
| CN(C)Cc1ccc(-c2ccc3ncc4ccc(=O)n(-c5ccc(C(=O)N6CCN(CCO)CC6)cc5)c4c3c2)cc1 [Compound 162] | 895 nM | 368 nM | 32080 nM | >30.0 min | >83.0 ug/mL | < 1 ×10⁻⁶ cm/s |
| O=C(c1ccc(-n2c(=O)ccc3cnc4ccc(-c5ccc(F)cc5)cc4c32)cc1)N1CCOCC1 [Compound 107] | 65.9 nM | 32.3 nM | 541.4 nM | 6.9 min | <1.0 ug/mL | 10.1 ×10⁻⁶ cm/s |
| O=C1Cc2cc(-c3ccc4ncc5ccc(=O)n(-c6ccc(C(=O)N7CCOCC7)cc6)c5c4c3)ccc2N1 [Compound 127] | 169 nM | 105 nM | 338.7 nM | 12.2 min | 7.3 ug/mL | 9.1 ×10⁻⁶ cm/s |
| Cc1ccc(C#N)cc1-n1c(=O)n(C)c2cnc3ccc(-c4ccc(Cl)cc4)cc3c21 [Compound 400] | 294 nM | 165 nM | 100000 nM | >30.0 min | <1.0 ug/mL | 1460 ×10⁻⁶ cm/s |
| NCc1cccc(-c2ccc3ncc4ccc(=O)n(-c5ccc(C(=O)N6CCOCC6)cc5)c4c3c2)c1 [Compound 180] | 1820 nM | 931 nM | 2454 nM | >30 min | 43.7 ug/mL | 3.8 ×10⁻⁶ cm/s |
| Nc1cc(Cl)ccc1-c1ccc2ncc3ccc(=O)n(-c4ccc(C(=O)N5CCOCC5)cc4)c3c2c1 [Compound 136] | 733 nM | 94.5 nM | 3591 nM | 7.8 min | 8.6 ug/mL | 1290 ×10⁻⁶ cm/s |
| O=C(c1ccc(-n2c(=O)ccc3cnc4ccc(-c5ccc(Cl)cc5)cc4c32)cc1)N1CCCCC1 [Compound 104] | 194 nM | 215 nM | 2680 nM | 1.4 min | <1.0 ug/mL | 389 ×10⁻⁶ cm/s |
| CN(C)Cc1ccc(-c2ccc3ncc4ccc(=O)n(-c5ccc(C(=O)NC6CC6)cc5)c4c3c2)cc1 [Compound 163] | 246 nM | 93.9 nM | 6497 nM | >30.0 min | >72.0 ug/mL | 232 ×10⁻⁶ cm/s |
| Cn1c(=O)n(-c2cccc(C#N)c2)c2c3cc(-c4cccc(C#N)c4)ccc3ncc21 [Compound 401] | 190 nM | 86.7 nM | 1271 nM | >30.0 min | <1.0 ug/mL | 297 ×10⁻⁶ cm/s |
| O=C(NC1CCCCC1)c1ccc(-n2c(=O)ccc3cnc4ccc(-c5ccc(Cl)cc5)cc4c32)cc1 [Compound 155] | 3110 nM | 1240 nM | 27970 nM | 10.7 min | <1.0 ug/mL | < 1 ×10⁻⁶ cm/s |
| CN(C)C(=O)c1ccc(-n2c(=O)ccc3cnc4ccc(-c5ccc(Cl)cc5)cc4c32)cc1 [Compound 100] | 45.5 nM | 14.8 nM | 1531 nM | 3.8 min | <1.0 ug/mL | 315 ×10⁻⁶ cm/s |
| O=C(c1ccc(-n2c(=O)ccc3cnc4ccc(-c5ccc(Cl)cc5)cc4c32)cc1C(F)(F)F)N1CCOCC1 [Compound 126] | 118 nM | 24 nM | 372.4 nM | 1.7 min | <1.0 ug/mL | 1240 ×10⁻⁶ cm/s |
| CN(C)C(=O)c1cc(-c2ccc3ncc4ccc(=O)n(-c5ccc(C(=O)N6CCOCC6)cc5)c4c3c2)ccc1Cl [Compound 146] | 1810 nM | 536 nM | 5732 nM | 9.6 min | 63 ug/mL | 98.3 ×10⁻⁶ cm/s |
| CNC(=O)c1ccc(-n2c(=O)ccc3cnc4ccc(-c5ccc(CN(C)C)cc5)cc4c32)cc1 [Compound 174] | 265 nM | 133 nM | 7636 nM | >30.00 min | >68.00 ug/mL | 49.9 ×10⁻⁶ cm/s |
| CC(O)c1ccc(-c2ccc3ncc4c(c3c2)n(-c2cccc(C#N)c2)c(=O)n4C)cc1 (stereo not drawn) [Compound 443] | 68.3 nM | 44.5 nM | 302.4 nM | >30.0 min | 3.3 ug/mL | 645 ×10⁻⁶ cm/s |
| Cc1cc(=O)n(-c2ccc(C(=O)NC3CC3)cc2)c2c1cnc1ccc(-c3ccc(Cl)cc3)cc12 [Compound 179] | 1700 nM | 451 nM | 100000 nM | 19.4 min | <1 ug/mL | < 1 ×10⁻⁶ cm/s |
| Cn1c(=O)n(-c2cccc(C#N)c2)c2c3cc(-c4ccc(Cl)c(O)c4)ccc3ncc21 [Compound 441] | 686 nM | 319 nM | 516.2 nM | >30.0 min | <1.0 ug/mL | < 1 ×10⁻⁶ cm/s |
| O=C(NC1C2CNCC21)c1ccc(-n2c(=O)ccc3cnc4ccc(-c5ccc(Cl)cc5)cc4c32)cc1 (stereo not drawn) [Compound 172] | 203 nM | 121 nM | 967.8 nM | >30.0 min | 2.3 ug/mL | 12.3 ×10⁻⁶ cm/s |
| Cn1c(=O)n(-c2cccc(C#N)c2)c2c3cc(-c4ccc(N)cc4)ccc3ncc21 [Compound 439] | 844 nM | 37.9 nM | 714.1 nM | >30.0 min | 1.4 ug/mL | 18.4 ×10⁻⁶ cm/s |
| Cn1c(=O)n(-c2cccc(C#N)c2)c2c3cc(-c4cccc(O)c4)ccc3ncc21 [Compound 444] | 280 nM | 106 nM | 427.8 nM | 12.8 min | <1.0 ug/mL | 407 ×10⁻⁶ cm/s |
| O=C(c1ccc(-n2c(=O)ccc3cnc4ccc(-c5ccc(Cl)cc5)cc4c32)cc1)N(CCO)CCO [Compound 105] | 94.3 nM | 47.9 nM | 779.9 nM | 5.9 min | 14.8 ug/mL | 285 ×10⁻⁶ cm/s |
| CN(C)Cc1ccc(-c2ccc3ncc4ccc(=O)n(-c5ccc(C(=O)N6CCN(C)CC6)cc5)c4c3c2)cc1 [Compound 164] | 809 nM | 594 nM | 40420 nM | >30.0 min | >79.0 ug/mL | 238 ×10⁻⁶ cm/s |
| O=C(c1ccc(-n2c(=O)ccc3cnc4ccc(-c5ccc(Cl)cc5O)cc4c32)cc1)N1CCOCC1 [Compound 134] | 256 nM | 72.7 nM | 2007 nM | 10.5 min | <1.0 ug/mL | 142 ×10⁻⁶ cm/s |
| O=C(c1ccc(-n2c(=O)ccc3cnc4ccc(-c5ccc(Cl)cc5)cc4c32)cc1)N1CCC1 [Compound 108] | 59.1 nM | 61.4 nM | 1165 nM | <1.0 min | <1.0 ug/mL | 119 ×10⁻⁶ cm/s |
